Laboratory results from patent US20090318527A1, “INDOLE COMPOUNDS AND METHODS OF USE THEREOF” (priority 2008, published 2009).

What was measured:
human 5-HT2B receptor = biological target: T1, human 5-HT2B receptor (Homo sapiens, UniProt P41595); assay: Intracellular calcium flux assay, HEK 293 cells stably expressing 5-HT2B; assay type: cell-based; conditions: for Emax: HEK293, read-out: 5-HT2B efficacy as percentage of the maximal 5-HT response ± SD; for Emax / EC50: calcium flux, at least three independent experiments; for EC50: each in triplicate, read-out: 5-HT2B mean EC50 ± SD; for Emax at 10 µM: HEK293, at 10,000 nM, read-out: 5-HT2B functional activity (N/A class);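 for all read-outs here: calcium dye fluorescence read on a FLIPR Tetra, peak signal above baseline within 60 s after compound addition, seven-point concentration series from 10 pM up to 10 µM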
T1 construct: expressed in transfected cells; host or cells: HEK 293
T1 sequence (P41595 whole entry): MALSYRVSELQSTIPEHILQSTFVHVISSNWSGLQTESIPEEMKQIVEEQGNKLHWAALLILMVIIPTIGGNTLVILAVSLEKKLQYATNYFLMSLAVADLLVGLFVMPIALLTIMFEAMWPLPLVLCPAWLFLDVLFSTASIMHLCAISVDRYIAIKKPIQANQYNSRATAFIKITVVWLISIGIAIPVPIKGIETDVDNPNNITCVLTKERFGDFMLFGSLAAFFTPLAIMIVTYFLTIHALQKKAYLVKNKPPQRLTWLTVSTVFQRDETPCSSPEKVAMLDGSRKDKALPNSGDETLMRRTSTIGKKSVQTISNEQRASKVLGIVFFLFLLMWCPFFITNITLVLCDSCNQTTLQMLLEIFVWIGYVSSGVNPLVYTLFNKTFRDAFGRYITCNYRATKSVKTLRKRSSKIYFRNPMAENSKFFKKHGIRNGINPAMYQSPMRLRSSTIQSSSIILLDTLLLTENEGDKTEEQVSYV

5-HT2C = biological target: T2, 5-HT2C (Homo sapiens, UniProt P28335); assay: Intracellular calcium flux assay, HEK 293 cells stably expressing 5-HT2C; assay type: cell-based; design: expressed in transfected cells; host or cells: HEK 293; conditions: for Emax: HEK293, read-out: 5-HT2C efficacy as percentage of the maximal 5-HT response ± SD, at least three independent experiments, entries marked a (42, 50, 51, 52) single measurements; for EC50: at least three independent experiments, entries marked a (42, 50, 51, 52) single measurements, read-out: 5-HT2C mean EC50 ± SD;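 for all read-outs here: calcium dye fluorescence read on FLIPR Tetra as peak signal above baseline within 60 s of compound addition, seven concentrations from 10 pM to 10 µM, each in triplicate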
T2 sequence (P28335 33-458): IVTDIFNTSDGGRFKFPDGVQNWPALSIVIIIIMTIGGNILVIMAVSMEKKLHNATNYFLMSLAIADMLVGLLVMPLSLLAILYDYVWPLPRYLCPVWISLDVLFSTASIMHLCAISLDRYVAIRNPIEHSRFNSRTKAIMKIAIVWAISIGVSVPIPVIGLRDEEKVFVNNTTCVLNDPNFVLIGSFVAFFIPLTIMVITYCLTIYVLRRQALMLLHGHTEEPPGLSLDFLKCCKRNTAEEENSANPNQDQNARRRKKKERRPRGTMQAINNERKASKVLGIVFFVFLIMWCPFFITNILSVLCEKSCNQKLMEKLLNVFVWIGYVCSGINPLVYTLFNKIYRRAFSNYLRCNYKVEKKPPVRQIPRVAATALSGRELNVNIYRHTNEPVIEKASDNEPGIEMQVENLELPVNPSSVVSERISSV

human 5-HT2A receptor = biological target: T3, human 5-HT2A receptor (Homo sapiens, UniProt P28223); assay: Intracellular calcium flux assay, HEK 293 cells stably expressing 5-HT2A; assay type: cell-based; conditions: for Emax at 10 µM: HEK293, read-out: 5-HT2A functional activity (N/A class); for Emax at 10 µM / 5-HT2A response as percentage of the maximal 5-HT response @ 10,000: at 10,000 nM; for 5-HT2A response as percentage of the maximal 5-HT response @ 10,000: EC50 not reached; for EC50: calcium flux, at least three independent experiments, each in triplicate, read-out: 5-HT2A mean EC50 ± SD;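 for all read-outs here: fluorescent calcium dye read on FLIPR Tetra, peak signal above baseline within 60 s after compound addition, seven concentrations spanning 10 pM to 10 µM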
T3 construct: expressed in transfected cells; host or cells: HEK 293
T3 sequence (P28223 whole entry): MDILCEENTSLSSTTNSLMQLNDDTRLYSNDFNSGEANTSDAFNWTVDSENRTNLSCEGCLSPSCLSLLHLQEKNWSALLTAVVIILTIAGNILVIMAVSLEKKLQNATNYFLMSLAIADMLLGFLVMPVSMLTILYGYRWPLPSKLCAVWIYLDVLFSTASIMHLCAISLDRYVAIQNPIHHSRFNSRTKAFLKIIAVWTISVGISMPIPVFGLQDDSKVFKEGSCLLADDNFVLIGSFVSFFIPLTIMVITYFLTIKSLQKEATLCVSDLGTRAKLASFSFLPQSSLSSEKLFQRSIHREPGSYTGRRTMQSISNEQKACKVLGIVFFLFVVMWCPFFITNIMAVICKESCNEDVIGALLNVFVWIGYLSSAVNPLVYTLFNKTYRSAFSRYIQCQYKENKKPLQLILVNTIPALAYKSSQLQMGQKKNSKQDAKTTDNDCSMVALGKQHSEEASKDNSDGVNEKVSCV

SMILES | melting point [°C] | Emax (human 5-HT2B receptor) [%] | EC50 (human 5-HT2B receptor) [nM] | Emax (5-HT2C) [%] | EC50 (5-HT2C) [nM] | Emax at 10 µM (human 5-HT2A receptor) [%] | Emax at 10 µM (human 5-HT2B receptor) [%] | 5-HT2A response as percentage of the maximal 5-HT response @ 10,000 (human 5-HT2A receptor) | EC50 (human 5-HT2A receptor) [nM]
CCCOc1cc(F)cc2c1c(CCN(C)C)cn2CCC.Cl [Compound 39, 2-(6-Fluoro-4-propoxy-1-propyl-1H-indol-3-yl)-N,N-dimethylethanamine hydrochloride] | 170.3 to 171.4 | 26 | 3120 | 65 | 762 ± 469 | < 10 | – | – | –
COc1ccc(Br)c2c1c(CCN(C)C)cn2C.Cl [Compound 73, 2-(7-Bromo-4-methoxy-1-methyl-1H-indol-3-yl)-N,N-dimethylethanamine hydrochloride] | 235 to 236 | – | – | 48 | 274 ± 57.7 | < 10 | < 10 | – | –
CN(C)CCc1cn(C)c2cc(O)c(F)cc12 [Compound 82, 3-[2-(Dimethylamino-ethyl)]-5-fluoro-1-methyl-1H-indol-6-ol] | 165 to 169 | – | – | 83 | 589 ± 546 | < 10 | < 10 | – | –
CCOc1cc(F)cc2c1c(CCN(C)C)cn2C.Cl [Compound 32, 2-(4-Ethoxy-6-fluoro-1-methyl-1H-indol-3-yl)-N,N-dimethylethanamine hydrochloride] | 202.2 to 203.3 | 66 | 166 ± 113 | 85 | 31 ± 23.6 | – | – | (26 ± 7.6 @ 10,000) % | > 10000
CN(C)CCc1cn(C)c2c(F)ccc(F)c12.Cl [Compound 65, 2-(4,7-Difluoro-1-methyl-1H-indol-3-yl)-N,N-dimethylethanamine hydrochloride] | 209 to 210 | – | – | 41 | 16 ± 3.46 | < 10 | < 10 | – | –
CCCn1cc(CCN(C)C)c2c(OCC)ccc(F)c21 [Compound 29, 2-(4-Ethoxy-7-fluoro-1-propyl-1H-indol-3-yl)-N,N-dimethylethanamine] | – | – | – | 43 | 346 ± 97 | < 10 | < 10 | – | –
CCn1cc(CCN(C)C)c2c(OC)ccc(F)c21 [Compound 23, 2-(1-Ethyl-7-fluoro-4-methoxy-1H-indol-3-yl)-N,N-dimethylethanamine] | – | – | – | 71 | 13 ± 1.74 | – | < 10 | (17 ± 3.7 @ 10,000) % | > 10000
CCCn1cc(CCN(C)C)c2c(OC)c(F)ccc21.Cl [Compound 42, 2-(5-Fluoro-4-methoxy-1-propyl-1H-indol-3-yl)-N,N-dimethylethanamine hydrochloride] | 111 to 113 | – | – | 34 | 741 | < 10 | < 10 | – | –
CCCn1cc(CCN(C)C)c2c(OC)cc(F)cc21.Cl [Compound 37, 2-(6-Fluoro-4-methoxy-1-propyl-1H-indol-3-yl)-N,N-dimethylethanamine hydrochloride] | 119.8 to 121.3 | – | – | 69 | 354 ± 195 | < 10 | < 10 | – | –
CCOc1c(F)ccc2c1c(CCN(C)C)cn2CC.Cl [Compound 60, 2-(4-Ethoxy-1-ethyl-5-fluoro-1H-indol-3-yl)-N,N-dimethylethanamine hydrochloride] | 130 to 132 | – | – | 69 | 4.2 ± 0.94 | < 10 | < 10 | – | –
CCCn1cc(CCN(C)C)c2c(OCC)cc(F)cc21.Cl [Compound 38, 2-(4-Ethoxy-6-fluoro-1-propyl-1H-indol-3-yl)-N,N-dimethylethanamine hydrochloride] | 154 to 156 | – | – | 80 | 1250 | < 10 | < 10 | – | –
CCCOc1ccc(F)c2c1c(CCN(C)C)cn2C [Compound 27, 2-(7-Fluoro-1-methyl-4-propoxy-1H-indol-3-yl)-N,N-dimethylethanamine] | – | 54 | 334 ± 88.7 | 75 | 96 ± 19.8 | < 10 | – | – | –
CCn1cc(CCN(C)C)c2c(OC)c(F)ccc21.Cl [Compound 41, 2-(1-Ethyl-5-fluoro-4-methoxy-1H-indol-3-yl)-N,N-dimethylethanamine hydrochloride] | 149 to 150 | – | – | 37 | 1.4 ± 0.19 | < 10 | < 10 | – | –
